# Patent publication US20080009448A1, “Peptide Derivative” (priority 2006, published 2008)
# Like-named read-outs stand apart in the source and are kept apart here.
# Key:
# Type in all cases: in vivo, mouse
# [1] = tested on: nerve damage model animal; experiment: Allodynia experiment, nerve damage model (partial sciatic nerve ligation), Von Frey filament method; conditions: for anti-allodynia effect in animals with ligated sciatic nerve: s.c. administration, Von Frey filament
# Method: Further the anti-nociceptive activity test using a nerve damage model envisioning a neuropathic pain was performed.
# Preparation of the Nerve-Damage Model was Conducted According to the model created by Seltzer (partial sciatic nerve ligation: RSL model).
# Specifically the amount of 0.1 mL/10 g of Nembutal solution 7 times diluted with Ringer's solution (Fuso Pharmaceutical Kogyo) was injected into the peritoneal cavity of mouse using 26 gauge needle (Termo) to give anesthetic. The animal was lain on its stomach, its femoral skin was cut open to incise through the fascia, the part between the heads of the biceps femoris was cut and then its sciatic nerve was fixed. The ⅓ to ½ part of the […] around the sciatic nerve detached without damaging was completely ligated with a nylon suture thread No. 9 (Natsume Seisakusho) using a vascular needle 000 spring hole (Natsume Seisakusho). Further the cut skin was sutured with the silk thread No. 2 (Natsume Seisakusho) using a surgical needle 1 spring needle (Natsume Seisakusho). After the operation, the mice had been kept until the testing date under the above conditions.
# The measurement of allodynia effect on the nerve-damage model animals was conducted according to the Von Frey filament method 7 days after the nerve ligation.
# Then a few kinds of filaments having different strength of stimulus (Touch-test Sensory Evaluator Instruction North Coast Medical Inc.) were pushed perpendicularly on the sole of the hinder leg until the filament was bent.
# Further, for comparison, the left lower leg of the animal without nerve-damage was also stimulated and the threshold values were measured. AUCs (the area surrounded with the time-reaction curve and the base line of a graph showing the relationship between the time after administration (time-course) and % MPE) were calculated from the obtained results. Antiallodynia activity obtained from the AUC divided by the measuring time was compared as strength of activity per unit of the time period.
# inflammatory pain model = experiment: Rheumatoid arthritis / inflammatory pain model (CFA), Von Frey filament method; conditions: for ED50: Mus musculus, po, read-out: ED50 of the anti-nociceptive activity calculated using the unit-time AUC value
# Method: Experimental animal, male ddy type mice (Nihon SLC), weighing the body weight in the range of 15 to 20 g, were used for the studies. The animals had been kept under constant conditions (room temperature 23±1° C., humidity 52±2%, 12 hours light-and-dark cycle having light time 7:00 to 19:00 and dark time 19:00 to 7:00) until used for an experiment. The animals were fed the mouse solid diet (F2, Funabashi farm. Funabashi, Japan) with unrestricted tap water intake, and kept in captivity for at least more than two days in a laboratory.
# A mouse was firmly fixed without anesthesia and 25 μL of Complete Freund's Adjuvant (CFA) using a number 30 guage needle (Termo) was subcutaneously administered into the dorsum of left hind foot to provide an inflammatory pain model. The model was kept under the conditions noted above until used for the test.
# Measurement of anti-nociceptive activity on the inflammatory pain model was conducted according to Von Fray filament method as well as on never damaged model 5 days after CFA administration. The drugs were orally administered.
# The anti-nociceptive activity is represented as a unit AUC value (AUC/min) which is the total AUC value or AUC divided by the measurement time and compared to study. ED50 of the anti-nociceptive activity was calculated by reducing the measurement value to a percentage of the upper limit which was set as 2.0 for the unit AUC.
# pressure stimulation = experiment: Tail-pressure test; conditions: either oral or subcutaneous administration (FIG. 67, 68)
# Method: The maximum pressure was 100 mmHg. The mice used for the experiment reacted to the pressure range between 40 mmHg and 50 mmHg in pre-selective experiment. A few mice or a few dozen of mice under the same condition were stimulated by adding pressure and respective threshold values for the pain reaction were measured in constant intervals after administration in accordance with different drugs administered and the different dosage thereof. According to the measurement value of the pain reaction threshold value, a percent of maximum possible effect, (% of MPE) was calculated using the following formula to quantify the anti-nociceptive activity. % of MPE=[(Pt−P0)/(Pc−Po)]×100 (in the formula, Po is a pain reaction threshold value before drug administration; Pt is a pain reaction threshold value t minute after drug administration; and Pc is a maximum simulative pressure)
# The mouse which reacted to 532 through 665 Pa (40-50 mmHg) was reselected for the test. In addition the maximal stimulating pressure was set as 1333 Pa (100 mmHg). Then % MPE at this point was calculated from formula (1) as well as noted above.
Compound,anti-allodynia effect in animals with ligated sciatic nerve [1],ED50 (inflammatory pain model; CFA administered foot),ED50 (inflammatory pain model; CFA non-administered foot),"lasting time of anti-nociceptive activity (inflammatory pain model; mice, CFA model, oral)","peak of anti-nociceptive activity after administration (inflammatory pain model; mice, CFA model, oral)","dosage providing the same AUC, as part of morphine dosage (pressure stimulation)","lasting period of anti-nociceptive activity compared with morphine ([1]; nerve damage model, s.c., at dose of equal activity)"
CN1CC[C@]23c4c5ccc(O)c4O[C@H]2[C@@H](O)C=C[C@H]3[C@H]1C5 [Morphine],significantly decreased,113 mg/kg,67.9 mg/kg,360 min,30 min,,
Iminoethyl-[Tyr]-[D-Met(O)]-[Phe]-[N-MeβAla]-NHCH3 [SS8225-07],decrease of anti-allodynia effect was not observed at any doses,,,,,one hundredth through one twentieth,about twice longer
